# Key:
# [1] = target: T1, intestinal lactase (Homo sapiens, UniProt P09848); assay: Excretion of xylose in urine of adult human volunteers after oral 4-galactosyl-xylose, colorimetric titration with fluoroglucinol; type: in vivo
# T1 construct: from tissue; host or cells: small-intestinal mucous membrane of living adult human volunteers (in vivo)
# Procedure: The methodology consists of the oral administration of an aqueous solution of 4-galactosyl-xylose to humans after at least 8 hours of fasting. The amount of xylose present in the urine excreted is evaluated as of then, after a specific period of time. The methodology can be carried out likewise by evaluating the presence of xylose in blood evaluating it in plasma, or blood serum, prepared from a blood sample extracted after a period of time, after the intake of the disaccharide. The titration of xylose can be done by means of calorimetric analysis based on the reaction with fluoroglucinol and using as a target, either the basal urine or else the basal plasma or the basal blood serum, depending on the methodology that is used. Once the intake of 4-galactosyl-xylose has taken place, it is hydrolyzed by the intestinal lactase, in such a way that the products of this enzymatic reaction, galactose and xylose, are absorbed into the blood through the intestinal mucous membrane.
# 4-galactosyl-xylose is an in vivo substrate of human intestinal lactase. This has been shown in the first place by orally administering 1 g of 4-galactosyl-xylose dissolved in 50 ml of water to an adult volunteer (individual 1) who had fasted for 8 hours and with a normal tolerance to milk and milk products, in other words, with lactose tolerance. A basal urine sample was taken from this individual immediately before the intake of 4-galactosyl-xylose and urine was again collected after the intake thereof every hour for 8 hours, each sample showing the total urine excreted in each period of time. Xylose was titrated in all the samples by means of calorimetric analysis based on the reaction with fluoroglucinol and using basal urine as the target. […] The results of this experiment appear compiled in FIG. 3, where the amount of xylose evaluated in each sample is represented (white circles) and the amount of xylose that is being accumulated in urine over time is represented (black circles), calculated by adding to the amount of xylose evaluated in each sample, the amounts evaluated in all the preceding samples. In […] one can see: 1) That xylose is excreted in the urine of this individual after oral administration of 4-galactosyl-xylose; 2) That the excretion of xylose in urine was maximum after 2 hours and it was progressively accumulated in the urine after administration of this compound.
# Excretion of xylose in urine by adult human volunteers with lactose tolerance varies according to the amount of the 4-galactosyl-xylose intake. This has been shown by administering 0.25 g, 0.5 g and 3 g of 4-galactosyl-xylose to an adult volunteer with lactose tolerance (individual 1, Example 4) and to an adult volunteer with lactose tolerance (individual 2, Example 5) under the same conditions as those described in Example 1 and likewise titrating xylose calorimetrically with fluoroglucinol in the urine excreted by both volunteers over time after the intake of the disaccharide. A free period of around one week was left between each intake of 4-galactosyl-xylose by the same individual. […] The results of these experiments are compiled in FIG. 4 panel A (for individual 1 and Example 4) and in FIG. 4 panel B (for individual 2 and Example 5), wherein the amount of xylose accumulated in urine after the intake of 4-galactosyl-xylose for each administered dose is represented. FIG. 4A includes the data obtained with the same individual after an intake of 1 g of the disaccharide coming from FIG. 3 so that a comparison can be made with the rest of the administered doses. In these FIGS. 4A and 4B one can see: 1) That the excretion of xylose in urine over time after the intake of 4-galactosyl-xylose increased as the amount administered to individual 1 (FIG. 4A), as well as to individual 2 (FIG. 4B) increased; That a dose of 0.25 g 4-galactosyl-xylose permitted easy detection of the presence of xylose in urine in either of these two individuals. […]
# [2] = Gastrointestinal tolerability of the oral intake of 4-galactosyl-xylose in adult human volunteers; type: in vivo
# T1 sequence (P09848 869-1927): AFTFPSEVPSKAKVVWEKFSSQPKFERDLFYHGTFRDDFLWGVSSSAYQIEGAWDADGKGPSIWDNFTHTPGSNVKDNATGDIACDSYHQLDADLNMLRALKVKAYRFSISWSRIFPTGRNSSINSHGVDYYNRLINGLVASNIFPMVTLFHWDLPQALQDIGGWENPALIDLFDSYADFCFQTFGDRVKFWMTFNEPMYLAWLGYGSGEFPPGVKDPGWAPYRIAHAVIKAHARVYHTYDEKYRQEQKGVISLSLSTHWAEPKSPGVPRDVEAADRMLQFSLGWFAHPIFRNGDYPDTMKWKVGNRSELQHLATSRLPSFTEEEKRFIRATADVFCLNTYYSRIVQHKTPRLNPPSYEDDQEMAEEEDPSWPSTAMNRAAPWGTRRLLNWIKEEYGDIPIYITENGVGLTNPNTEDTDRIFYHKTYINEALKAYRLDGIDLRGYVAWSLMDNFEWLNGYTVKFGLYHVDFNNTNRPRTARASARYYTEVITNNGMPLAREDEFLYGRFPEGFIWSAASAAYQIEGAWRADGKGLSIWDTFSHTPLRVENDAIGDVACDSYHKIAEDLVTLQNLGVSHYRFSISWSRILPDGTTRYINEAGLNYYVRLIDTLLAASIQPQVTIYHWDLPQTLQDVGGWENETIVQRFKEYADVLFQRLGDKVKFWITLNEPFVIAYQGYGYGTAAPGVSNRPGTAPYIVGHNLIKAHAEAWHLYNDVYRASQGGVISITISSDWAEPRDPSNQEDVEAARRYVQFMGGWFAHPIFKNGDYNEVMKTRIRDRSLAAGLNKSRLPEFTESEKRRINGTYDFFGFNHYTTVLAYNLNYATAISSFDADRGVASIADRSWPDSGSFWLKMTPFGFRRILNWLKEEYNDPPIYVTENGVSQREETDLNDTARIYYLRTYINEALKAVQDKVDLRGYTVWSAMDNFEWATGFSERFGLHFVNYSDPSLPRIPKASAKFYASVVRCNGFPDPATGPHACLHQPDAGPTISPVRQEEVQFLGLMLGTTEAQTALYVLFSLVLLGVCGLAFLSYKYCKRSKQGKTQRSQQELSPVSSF
smiles,measurement,setting,value
OCC1O[C@@H](O[C@@H]2COC(O)C(O)[C@H]2O)C(O)[C@@H](O)[C@H]1O (some centres unmarked),"total xylose in urine 8 hours after intake, average value","[1]; female volunteers with lactose tolerance, 0.25 g oral",23.5 ± 2.0 mg
same,reduction of xylose in urine versus average of tolerant females,"[1]; individual 5, 0.25 g oral, 8 hours",83%
same,total xylose in urine 8 hours after intake,"[1]; individual 5, person with lactose intolerance from birth, 0.25 g oral",4.08 mg
same,reduction of xylose in urine versus average of tolerant males,"[1]; individual 12, 0.25 g oral, 8 hours",96%
same,total xylose in urine 8 hours after intake,"[1]; individual 12, hypolactasic person with lactose intolerance, 0.25 g oral",1.33 mg
same,total xylose excreted in urine after 8 hours,"[1]; individual 13, person with allergy to milk components, 0.25 g oral",the same total amount as the average of females with lactose tolerance
same,dose dependence of excretion of xylose in urine,"[1]; individuals 1 and 2 with lactose tolerance, oral doses of 0.25 g, 0.5 g, 1 g and 3 g",increased with the amount
same,"total xylose in urine 8 hours after intake, average value","[1]; male volunteers with lactose tolerance, 0.25 g oral",35.7 ± 2.0 mg
same,gastrointestinal discomfort or disorders,"[2]; 8 adult volunteers with lactose tolerance, 0.25 g oral",did not cause any gastrointestinal discomfort or disorder
same,gastrointestinal discomfort or disorders,"[2]; individual 1 with lactose tolerance, 1 g oral",did not cause any gastrointestinal discomfort or disorders
same,gastrointestinal discomfort or disorders,"[2]; individual 12 with lactose intolerance and two individuals with lactose tolerance, 3 g oral",did not result in any gastrointestinal discomfort or disorder
same,gastrointestinal discomfort or disorders,"[2]; individual 13, allergy to milk components, 0.25 g oral",did not cause any gastrointestinal discomfort or disorder
same,gastrointestinal discomfort or disorders,"[2]; individuals 1 and 2 with lactose tolerance, 0.25 g, 0.5 g and 3 g oral",did not cause any gastrointestinal discomfort or any disorder
same,gastrointestinal discomfort or disorders,"[2]; individuals 12 and 5 with lactose intolerance, 0.25 g oral",did not cause any gastrointestinal discomfort or disorders
